From patent US11179348B2, “Combination comprising pterostilbene for the treatment of cancer” (FUNDACIÓN UNIVERSIDAD CATÓLICA DE VALENCIA SAN VICENTE …, priority 2015, dated 2021)
Where two headings read alike, the source gives them in different places. Marks after values point to notes of the source that are not given here.

Experiments:
MDA-MB-231 cells = assay: GSH levels and glutathione- and oxidative stress-related enzyme activities in MDA-MB-231 cells growing in vivo; set-up: species or system human; details: MDA-MB-231, in vivo Pter, day 35
Procedure: To measure enzyme activity, isolated tumor cells were homogenized in 0.1 M phosphate buffer (pH 7.2) at 4° C. GCL and GSS activities were measured as described previously (Obrador, E. et al. Hepatology 35, 74-81 (2002)). GPX (selenium dependent) activity was measured as described by Flohé and Gunzler (Flohe, L. & Gunzler, W. A. Methods Enzymol 105, 114-121 (1984)) using H2O2 as a substrate. GSR activity was determined as described by Akerboom and Sies (Akerboom, T. P. et al, Bull Eur Physiopathol Respir 17 Suppl, 221-227 (1981)). GGT activity was measured as described previously (Obrador, E. et al. Hepatology 35, 74-81 (2002)). GST activity was measured using an assay kit from Sigma. TXNRD activity, defined by the concentration of sodium-lipoate (disulfide) reduced to dehydrolipoate (dithiol) per milligram protein, was measured as previously described (Javvadi, P. et al. Cancer Res 70, 1941-1950 (2010)). SOD activity was measured as described by Flohé and Otting (Flohe, L. & Otting, F. Methods Enzymol 105, 93-104 (1984).) using 2 mM cyanide in the assay medium to distinguish mangano-type enzyme (SOD2) from the cuprozinc type (SOD1). CAT activity was analyzed as described by Aebi (Aebi, H. Methods Enzymol 105, 121-126 (1984)). NOX activity was measured by chemiluminescence following the methodology of Wind et al. (Wind, S. et al. Comparative pharmacology of chemically distinct NADPH oxidase inhibitors. Br J Pharmacol 161, 885-898 (2010)). Protein concentration was determined with the Pierce BCA protein assay (Fisher Scientific, Waltham, Mass.).
GSH, GSSG, NADP^+ and NADPH Determination.
GSH and GSSG were determined, following procedures previously described (Obrador, E. et al. PLoS One 9, e96466 (2014)), by LC/MS using the same equipment described above for pterostilbene determination. Cell processing was performed according to published methodology, where rapid N-ethylmaleimide derivatization was used to prevent GSH auto-oxidation (Asensi, M. et al. Anal Biochem 217, 323-328 (1994)). NADP^+ and NADPH were quantitated using an assay kit from Sigma (St. Louis, Mo.).
Isolation of Tumor Cells from Mouse Xenografts Using Enzymatic Digestion and a double Ficoll gradient.
To maximize the amount of isolated cells, avoiding the use of RFP-transfected cells and subsequent laser microdissection, an alternative methodology was set up. To maximize cell yield and viability the following combination of enzymes was used: collagenase III (200 U/ml; Sigma-Aldrich), DNase I (200 U/ml; Sigma-Aldrich) and trypsin (5 mg/ml; Invitrogen), and a non-enzymatic dissociation buffer (NEDB, Invitrogen). Briefly, mice were killed, and tumors were removed (avoiding skin, muscle and fat) into cold culture media and processed immediately. The tumors were minced into 1-3 mm fragments, which were then incubated with the dissociation solution (see above) for 30 min at 37° C. The tumor fragments were mixed up and down every 10 min using a […] micropipette with a tip cut to a diameter adapted to tissue fragment size. After each incubation period, the fragments were filtered through a […] nylon mesh cell strainer (BD Biosciences, San Diego, Calif., USA). The released cells were centrifuged at 1200 r.p.m. for 2 min and stored in cold CO2-independent medium with 30% FCS at […]. Fresh dissociation solution was added to the remaining tissue fragments for 30 min. Dissociation was stopped when no additional cells were released. The fragments were pushed through a sieve and all cells from all incubation periods were pooled and counted.
The dissociated cells were layered onto a double Ficoll gradient (Histopaque; Sigma-Aldrich; densities 1.077 and 1.119) and spun at 700 g for 30 min at room temperature. Cells removed from both interfaces were pooled and washed two times in CO2-independent medium and stored at 4° C. Debris and red blood cell elimination was improved with the dual-density gradient. […]

AsPC-1 pancreatic cancer = assay: In vivo growth of AsPC-1 pancreatic cancer xenografts; set-up: species or system human; details: AsPC-1-RFP; 28 days after inoculation; Pter and/or CRC
[1] = Pter and metabolite levels in plasma, tumor, brain and pituitary after i.v. administration (LC-MS/MS); assay type: in vivo, mice; details: for highest concentration in plasma / highest concentration in tumors: 5 min after i.v. 30 mg Pter/kg
Procedure: Determination of Pter and its Metabolites by High-Pressure Liquid Chromatography and Mass Spectrometry (LC-MS/MS).
LC-MS/MS was carried out, as previously described (Ferrer, P. et al. Neoplasia 7, 37-47 (2005); Azzolini, M. et al. Mol Nutr Food Res 58, 2122-2132 (2014)) in detail, using a TSQ Vantage™ Triple Quadrupole Mass Spectrometer (Thermo Scientific, Waltham, Mass.) equipped with a Shimadzu LC-10ADvp. pump and a SLC-10Avp. controller system with a SIL-10ADvp. autoinjector.

COc1cc(/C=C/c2ccc(O)cc2)cc(OC)c1 [Pter, trans-3,5-dimethoxy-4′-hydroxystilbene]
CAT (MDA-MB-231 cells): 0.6 ± 0.2 mU/10^6 cells | GCL (MDA-MB-231 cells): 66 ± 18 mU/10^6 cells | GSH (MDA-MB-231 cells): 11.5 ± 2.0 nmol/10^6 cells | GSS (MDA-MB-231 cells): 7.7 ± 1.2 mU/10^6 cells | GSSG (MDA-MB-231 cells): 0.2 ± 0.05 nmol/10^6 cells | SOD1 (MDA-MB-231 cells): 0.3 ± 0.08 U/10^6 cells | SOD2 (MDA-MB-231 cells): 0.03 ± 0.01 U/10^6 cells | Tumor vol. (AsPC-1 pancreatic cancer): 523 ± 168* mm^3 | approx. mean level in the hypophysis ([1]; 10-30 min after i.v. 30 mg/kg): ~15 µM | level in whole brain ([1]; 60 min after i.v. 30 mg/kg): approx. 1 nmol/g | level in whole brain ([1]; 120 min after i.v. 30 mg/kg): non-detectable levels | highest concentration in plasma ([1]; A2058-bearing mice): 112 ± 17 µM | highest concentration in tumors ([1]; A2058 tumors): 28 ± 7 µM | highest concentration in tumors ([1]; MeWo tumors): 33 ± 7 µM | highest concentration in plasma ([1]; MeWo-bearing mice): 116 ± 23 µM | highest concentration in tumors ([1]; MelJuso tumors): 25 ± 7 µM | highest concentration in plasma ([1]; MelJuso-bearing mice): 98 ± 13 µM | levels in plasma after the last time point ([1]; after 480 min): undetectable | levels in the hypophysis compared with the whole brain ([1]; after i.v. 30 mg/kg): significantly higher | lowest concentration in plasma ([1]; at 240-480 min after i.v. 30 mg Pter/kg): approx. 1 μM | half-life ([1]; female, nu/nu nude, mouse, melanoma tumor, iv, 30 mg/kg, melanoma tumors, 30 mg Pter/kg i.v., read-out: half-life in the melanoma tumors): 36 to 40 min | half-life ([1]; female, nu/nu nude, mouse, plasma, iv, 30 mg/kg, B16-F1-bearing mice, Pter 30 mg/kg i.v., read-out: half-life in circulating plasma): 61.2 min | half-life ([1]; female, nu/nu nude, mouse, plasma, iv, 30 mg/kg, melanoma-bearing mice, 30 mg Pter/kg i.v., read-out: half-life in circulating plasma): 70 to 73 min | half-life ([1]; female, nu/nu nude, mouse, tumor (B16-F1), iv, 30 mg/kg, B16-F1 tumors, Pter 30 mg/kg i.v., read-out: half-life in the tumors): 29.3 min | concentration at 180 min ([1]; female, nu/nu nude, mouse, tumor, iv, 30 mg/kg, at 180 min after i.v. 30 mg Pter/kg, read-out: lowest concentration in tumors): ~1000 nM | approximate mean concentration within the tumor ([1]; first hour after i.v. 30 mg Pter/kg): ~15 µM | main Pter-derived metabolite generated in vivo (plasma) ([1]; i.v. 30 mg Pter/kg): pterostilbene-4′-sulfate (Pter-S)
